Each structure is given as a SMILES string. Bounds are passed on as bounds.

Test [1] deals with MC3T3-E1 (mouse calvarial) osteoblast cells. In words: Rescue of sclerostin inhibition of mineralization (total calcium). The class given is cell-based. To be noted: Mus musculus, MC3T3-E1; IC100 class; calcium concentration, MC3T3 osteoblast cells treated with sclerostin; read-out: Sclerostin Inhibition of Mineralization; improvement over sclerostin alone. The protocol: Mineralization (crystalline calcium phosphate formation) represents an in vitro model of bone formation. […] Following the protocol described in Li et al., Compounds were assayed for their ability to rescue the inhibition of mineralization by sclerostin in MC3T3 osteoblast cells.

Another test deals with T1, sclerostin (Homo sapiens, UniProt Q9BQB4).
T1 construct: host or cells: human embryonic cells (reporter cells)
T1 sequence (Q9BQB4 24-213): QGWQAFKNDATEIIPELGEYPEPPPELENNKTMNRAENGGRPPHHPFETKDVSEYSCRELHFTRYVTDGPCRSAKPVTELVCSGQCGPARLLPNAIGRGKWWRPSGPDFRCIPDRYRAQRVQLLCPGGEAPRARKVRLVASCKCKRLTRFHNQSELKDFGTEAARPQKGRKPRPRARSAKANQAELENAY
In words: Modulation of sclerostin/Wnt activity (sclerostin inhibition assay): restoring Wnt3a signaling in the presence of sclerostin. Conditions: IC100 class; Wnt3a signaling in human embryonic cells in presence of sclerostin. The class given is cell-based.

A further test has as its system MC3T3 osteoblast cells. The test is described as follows: Osteocalcin (OCN) secretion, bone formation marker, ELISA. The class given is cell-based, mouse. Conditions: Mus musculus; IC100 class; OCN secreted from MC3T3 osteoblast cells treated with sclerostin. As to the method: Bone formation can also be assayed in vitro or in vivo using a serum marker for bone formation, osteocalcin (OCN), available from Biomedical Tecnhnologies, Inc. (Stoughton, Mass.). Following the manufacturer's protocol for the mouse osteocalcin EIA kit (described at the website www.btiinc.com/page/cata2.html#mouse_osteocalcin), bone formation in MC3T3 osteoblast cells was assayed by measuring the concentration of OCN.
A general note: An ELISA detects its analyte on a solid surface through an enzyme-linked reagent.

For `CC(Cn1c2ccccc2c2ccccc21)N(C)C` (stereo not drawn) [Example 2, 1-(9H-carbazol-9-yl)-N,N-dimethylpropan-2-amine], the IC100 (in test [1]; with MC3T3 osteoblast cells) was more than 10 µM throughout. Besides, the “Sclerostin Inhibition Assay; improvement over sclerostin alone.” value at sclerostin is given as “+ (+ indicates an IC100 > 10 μM)”.

Consider `COc1ccc2c3ccnc(C)c3n(C(C)CN(C)C)c2c1` (stereo not drawn) [Example 5, 2-(7-methoxy-1-methyl-9H-pyrido[3,4-b]indol-9-yl)-N,N-dimethylpropan-1-amine], for which the IC100 (in test [1]; with MC3T3 osteoblast cells) was less than 10 µM throughout. Moreover, the “Sclerostin Inhibition Assay; improvement over sclerostin alone.” value on sclerostin is reported as “++ (++ indicates an IC100 < 10 μM)”.

`CCN(CC)CCCn1c2cc(OC)ccc2c2ccnc(C)c21` [Example 6, N,N-diethyl-3-(7-methoxy-1-methyl-9H-pyrido[3,4-b]indol-9-yl)propan-1-amine]: the IC100 (in test [1]; in the test with MC3T3 osteoblast cells) was less than 10 µM in each case. Besides, the “Sclerostin Inhibition Assay; improvement over sclerostin alone.” value on sclerostin is “++ (++ indicates an IC100 < 10 μM)”.

On to `COc1ccc2c3ccnc(C)c3n(CCN(C)C)c2c1` [Example 7, 2-(7-methoxy-1-methyl-9H-pyrido[3,4-b]indol-9-yl)-N,N-dimethyl ethanamine], for which the IC100 (in test [1]; in the test with MC3T3 osteoblast cells) was less than 10 µM in each case. The “Sclerostin Inhibition Assay; improvement over sclerostin alone.” value at sclerostin is “++ (++ indicates an IC100 < 10 μM)”.

Take `COc1ccc2c3ccnc(C)c3n(CCN3CCN(C(=O)OC(C)(C)C)CC3)c2c1` [Example 14, t-butyl 4-(2-(7-methoxy-1-methyl-9H-pyrido[3,4-b]indol-9-yl)ethyl) piperazine-1-carboxylate]: the IC100 (in test [1]; with MC3T3 osteoblast cells) was less than 10 µM each time. Besides, at sclerostin, the “Sclerostin Inhibition Assay; improvement over sclerostin alone.” value is “++ (++ indicates an IC100 < 10 μM)”.

As for `COc1ccc2c3ccnc(C)c3n(CCN3CCNCC3)c2c1` [Example 16, 7-methoxy-1-methyl-9-(2-(piperazin-1-yl)ethyl)-9H-pyrido[3,4-b]indole], the IC100 (in test [1]; in the test with MC3T3 osteoblast cells) was less than 10 µM in each case. On sclerostin, the “Sclerostin Inhibition Assay; improvement over sclerostin alone.” value is given as “++ (++ indicates an IC100 < 10 μM)”.

For the compound `COc1ccc2c(c1)[nH]c1c(C)nc(O)cc12` [Example 19, 7-methoxy-1-methyl-9H-pyrido[3,4-b]indol-3-ol], the IC100 (in test [1]; with MC3T3 osteoblast cells) was less than 10 µM each time. Further, the “Sclerostin Inhibition Assay; improvement over sclerostin alone.” value on sclerostin is “++ (++ indicates an IC100 < 10 μM)”.

Turning to `Cc1nc(O)cc2c1[nH]c1cc(O)ccc12` [Example 20, 1-methyl-9H-pyrido[3,4-b]indole-3,7-diol], the IC100 (in test [1]; in the test with MC3T3 osteoblast cells) was more than 10 µM in each case. Besides, the “Sclerostin Inhibition Assay; improvement over sclerostin alone.” value at sclerostin is “+ (+ indicates an IC100 > 10 μM)”.

In the case of `Oc1ccc2c(c1)[nH]c1c(C(F)(F)F)nccc12` [Example 23, 1-(trifluoromethyl)-9H-pyrido[3,4-b]indol-7-ol], the IC100 (in test [1]; with MC3T3 osteoblast cells) was less than 10 µM in each case. Also, on sclerostin, the “Sclerostin Inhibition Assay; improvement over sclerostin alone.” value is given as “++ (++ indicates an IC100 < 10 μM)”.

With `COc1ccc2c3ccnc(C(F)(F)F)c3n(CCN3CCN(C(=O)OC(C)(C)C)CC3)c2c1` [Example 24, t-butyl 4-(2-(7-methoxy-1-(trifluoromethyl)-9H-pyrido[3,4-b]indol-9-yl)ethyl)piperazine-1-carboxylate], the IC100 (in test [1]; in the test with MC3T3 osteoblast cells) was less than 10 µM throughout. In addition, the “Sclerostin Inhibition Assay; improvement over sclerostin alone.” value on sclerostin is “++ (++ indicates an IC100 < 10 μM)”.

`Oc1ccc2c3ccnc(C(F)(F)F)c3n(CCN3CCOCC3)c2c1` [Example 26, 9-(2-morpholinoethyl)-1-(trifluoromethyl)-9H-pyrido[3,4-b]indol-7-ol]: the IC100 (in test [1]; in the test with MC3T3 osteoblast cells) was less than 10 µM in each case. Further, the “Sclerostin Inhibition Assay; improvement over sclerostin alone.” value on sclerostin is “++ (++ indicates an IC100 < 10 μM)”.

The record behind these values is patent publication US11267814B2, “Compounds for bone growth” (OsteoQC Inc., priority 2013, dated 2022).
